Measured values reported in publication PMC2138933 (The Journal of Experimental Medicine, 1971).

Key:
[1] = system: purified guinea pig anti-a,DNP-Lys7-10 antibody; conditions: as measured by binding of DNP-OH or DNP-EACA; fluorescence quenching
[2] = system: purified anti-8,e,DNP-Lys8 antibody; type: binding, guinea pig; conditions: cross-reaction of anti-8,ε,DNP-Lys8 antibody with α,DNP-oligolysines

Row | SMILES | contribution of the haptenic group to the total binding energy of a,DNP-Lys9 [1] | contribution to the binding energy of α,DNP-oligolysines [2] [%]
1 | O=[N+]([O-])c1ccc(O)c([N+](=O)[O-])c1 [DNP-OH, 2,4,dinitrophenol] | about 70% | 93
2 | O=C(O)CCCCCNc1ccc([N+](=O)[O-])cc1[N+](=O)[O-] [DNP-EACA] | about 70% | 
